Assay [1] deals with cPP cells. Put plainly: Microbioreactor array (MBA) screening of cPP maintenance and proliferation. It is filed as cell-based, human. The settings on record: relatively low concentration (1 μM) in cPP culture medium. The method, then: Microbioreactor arrays were used to screen the effects of combinations of exogenous signaling molecules on cPP cells. MBAs provide combinatorial mixing of input factors, combined with continuous flow of culture media over culture chambers. MBAs were autoclaved and filled with sterile PBS, then coated (2-4 h, room temperature) with a single 1 mL injection of hESC-qualified matrigel at the manufacturer's recommended concentration. cPP cells in suspension in complete medium at 5×10^6/mL were then seeded in the MBA, giving a surface density of 50×10^6cells/cm^2. Cells were allowed to attach for a total of 20 h, with a media exchange performed every 6 h. […] Nuclear segmentation and quantification of nuclear intensities of PDX1 and SOX9 then proceeded similarly as previously described.
To quantify the effect of exogenous signaling molecules on the maintenance and expansion of cPP cells, this study used a microbioreactor array (MBA) screening platform to measure differentiation and proliferation. […] The study then used an image-segmentation algorithm to identify individual nuclei and quantify immunofluorescence staining for PDX1 and SOX9, thereby enabling the determination of the percentage of double-positive cells following exposure to different growth factor regimes. […]

The subject of assay [2] is cPP cells. The experiment in a line: Omission of individual components from complete cPP culture medium on 3T3-J2 feeders (phase contrast, qRT-PCR). It is filed as cell-based, human. The settings on record: for Effect of removing the component on cPP expansion, colony size and morphology: component individually omitted from complete medium, cPP cells cultured 6 days on 3T3-J2 feeders. On the procedure: Gentle cell dissociation reagent (STEMCELL Technologies, 07174) was used to passage cPP cells as aggregates that were then seeded at a 1:6 split ratio onto a layer of 3T3-J2 feeders (0.5×10^6 to 1×10^6 cells/cm^2) in medium composed of advanced DMEM/F12 (Thermo Fisher Scientific, 21634010), 2 mM L-glutamine (Thermo Fisher Scientific, 25030), 100 U/mL penicillin/streptomycin (Thermo Fisher Scientific, 15140122), 1× N2 supplement (Thermo Fisher Scientific, 17502-048), 1× B27 supplement (Thermo Fisher Scientific, 17504-044), 30 nM dexamethasone (STEMCELL Technologies, 72092), 50 ng/mL EGF (R&D Systems, 236-EG-200), 50 ng/mL FGF10 (Source Bioscience, ABC144), 3 μM RA (Sigma, R2625), 10 μM SB431542 (Calbiochem, 616464), and 1 μM DAPT (Sigma, D5942). If plating single cPP cells, complete medium was supplemented with 10 μM Y27632 for the first 48 hr (Sigma, Y0503). Medium was completely replenished every 2-3 days.
RNA was isolated from samples using an RNeasy mini kit (Qiagen, cat # 74104) and reverse transcribed to generate cDNA using a high-capacity reverse transcription kit and random hexamer primers (Applied Biosystems, 4368814,1 μg RNA per 20 μL reaction). Quantitative RT-PCR was carried out using SYBR Select Mastermix (Applied Biosystems, 4472908). Data were analyzed using the ΔΔCT method, and normalized to expression of the housekeeping gene TBP in each sample.
To establish the roles played by the growth factors and small molecules in our culture media, each was removed individually and the effect on differentiation and proliferation was assessed.

Consider `C[C@H](NC(=O)Cc1cc(F)cc(F)c1)C(=O)N[C@H](C(=O)OC(C)(C)C)c1ccccc1` [DAPT], for which, in the assay with cPP cells [1], the “Effect on proliferation of cPP cells” value is on record as “promotes proliferation of cPP cells”. Also, the “Effect of removing the component on cPP expansion, colony size and morphology” value in the assay on cPP cells [2] is on record as “did not significantly affect colony size or morphology in the short term”. Besides, the “Effect of removing the component on viability” value in the assay on cPP cells [2] (component removed from the culture media over multiple passages) is on record as “noticeable loss of viability”.
With `NC(=O)c1ccc(-c2nc(-c3ccc4c(c3)OCO4)c(-c3ccccn3)[nH]2)cc1` [SB431542], in the assay on cPP cells [2], the “Effect of removing the component on cPP expansion, colony size and morphology” value is “caused colonies to detach from the feeder layer”.
The same measure, in the same setting: for “EGF: epidermal growth factor, growth factor in the cPP culture medium (50 ng/mL) (NSDSECPLSHDGYCLHDGVCMYIEALDKYACNCVVGYIGERCQYRDLKWWELR; Epidermal growth factor; UniProt P01133 971-1023, looked up)” the value was “prevented cPP expansion”.
